The assay has as its system cholesterol absorption from the intestine. Briefly: In Vivo Assay of Hypolipidemic Agents using the Rat Cholesterol Absorption Model. Also on record: species or system Female Sprague-Dawley rats. The settings on record: 3H levels in serum three hours after 3H-cholesterol. In short, it runs like this:
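Fasted female Sprague-Dawley rats (150–250 g, 4–6/group) received compound orally in olive oil or vehicle. Thirty minutes later they were given 3–5 µCi ^3H-cholesterol orally in olive oil, and serum ^3H was counted at 3 h. Percent inhibition versus vehicle control is at a fixed dose; ED50 is the dose giving half-maximal effect on serum ^3H.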

The mark [1] stands for this setting: po, Table 1, perorally, 1 mg/kg, versus vehicle only control.
[2] abbreviates: po, Table 2, perorally, 1 mg/kg, versus vehicle only control.

Consider `O=C1[C@H](CC[C@H](O)c2ccc(F)cc2)[C@@H](c2ccc(-c3ccccc3)cc2)N1c1ccc(F)cc1` [Example 3, (3R,4S)-4-Biphenyl-4-yl-1-(4-fluorophenyl)-3-[(3S)-3-(4-fluorophenyl)-3-hydroxypropyl]azetidin-2-one], for which testing at 10 mg/kg (po, Table 1, footnote 1, perorally, 10 mg/kg) gave an inhibition of 15%. `O=C1[C@H](CC[C@H](O)c2ccc(F)cc2)[C@@H](c2ccc(-c3ccc4ccccc4c3)cc2)N1c1ccc(F)cc1` [Example 91, (3R,4S)-1-(4-fluorophenyl)-3-[(3S)-3-(4-fluorophenyl)-3-hydroxypropyl]-4-[4-(2-naphthyl)phenyl]azetidin-2-one] came in with an inhibition at 1 mg/kg under setting [1] of 56%. Same read-out and setting: then `CSc1cccc(-c2ccc([C@@H]3[C@@H](CC[C@H](O)c4ccc(F)cc4)C(=O)N3c3ccc(F)cc3)cc2)c1` [Example 82, (3R,4S)-1-(4-fluorophenyl)-3-[(3S)-3-(4-fluorophenyl)-3-hydroxypropyl]-4-[3'-(methylthio)biphenyl-4-yl]azetidin-2-one], with 28%. Take `COc1cc(-c2ccc([C@@H]3[C@@H](CC[C@H](O)c4ccc(F)cc4)C(=O)N3c3ccc(F)cc3)cc2)cc(OC)c1OC` [Example 9, (3R,4S)-1-(4-fluorophenyl)-3-[(3S)-3-(4-fluorophenyl)-3-hydroxypropyl]-4-(3',4',5'-trimethoxybiphenyl-4-yl)azetidin-2-one]: 1 mg/kg produced 40% inhibition under setting [1]. Still for that read-out and setting: then `COc1ccc(C=O)c(-c2ccc([C@@H]3[C@@H](CC[C@H](O)c4ccc(F)cc4)C(=O)N3c3ccc(F)cc3)cc2)c1` [Example 85, 4'-{(2S,3R)-1-(4-fluorophenyl)-3-[(3S)-3-(4-fluorophenyl)-3-hydroxypropyl]-4-oxoazetidin-2-yl}-5-methoxybiphenyl-2-carbaldehyde], with 15%. The same measure, in the same setting: as for `COc1ccc(-c2ccc([C@@H]3[C@@H](CC[C@H](O)c4ccc(F)cc4)C(=O)N3c3ccc(F)cc3)cc2)cc1OC` [Example 81, (3R,4S)-4-(3',4'-dimethoxybiphenyl-4-yl)-1-(4-fluorophenyl)-3-[(3 S)-3-(4-fluorophenyl)-3-hydroxypropyl]azetidin-2-one], the figure is 17%. Turning to `O=C1[C@H](CC[C@H](O)c2ccc(F)cc2)[C@@H](c2ccc(-c3cccc(O)c3)s2)N1c1ccccc1` [Example 50, (3R,4S)-3-[(3S)-3-(4-Fluorophenyl)-3-hydroxypropyl]-4-[5-(3-hydroxyphenyl)-2-thienyl]-1-phenylazetidin-2-one], the inhibition at 1 mg/kg under setting [2] turned out to be 27%. Take `COc1ccc(-c2ccc([C@@H]3[C@@H](CC[C@H](O)c4ccc(F)cc4)C(=O)N3c3ccc(F)cc3)cc2)c(OC)c1OC` [Example 96, (3R,4S)-1-(4-fluorophenyl)-3-[(3S)-3-(4-fluorophenyl)-3-hydroxypropyl]-4-(2',3',4'-trimethoxybiphenyl-4-yl)azetidin-2-one]: at 1 mg/kg the inhibition under setting [1] was 69%.

`CCOc1ccc(-c2ccc([C@@H]3[C@@H](CC[C@H](O)c4ccc(F)cc4)C(=O)N3c3ccc(F)cc3)cc2)cc1` [Example 101, (3R,4S)-4-(4'-ethoxybiphenyl-4-yl)-1-(4-fluorophenyl)-3-[(3S)-3-(4-fluorophenyl)-3-hydroxypropyl]azetidin-2-one] registered an inhibition at 1 mg/kg under setting [1] of 41%. Under setting [2], `O=C1[C@H](CC[C@H](O)c2ccc(F)cc2)[C@@H](c2ccc(-c3cccc(O)c3)cc2O)N1c1ccc(F)cc1` [Example 121, (3R,4S)-4-(3,3'-dihydroxybiphenyl-4-yl)-1-(4-fluorophenyl)-3-[(3S)-3-(4-fluorophenyl)-3-hydroxypropyl]azetidin-2-one] gave an inhibition at 1 mg/kg of 72%. The same measure, in the same setting: then `O=C1[C@H](CC[C@H](O)c2ccc(F)cc2)[C@@H](c2ccc(-c3ccc(O)cc3)cc2O)N1c1ccccc1` [Example 125, (3R,4S)-4-(3,4'-dihydroxybiphenyl-4-yl)-3-[(3S)-3-(4-fluorophenyl)-3-hydroxypropyl]-1-phenylazetidin-2-one], with 64%; and `O=C1[C@H](CC[C@H](O)c2ccc(F)cc2)[C@@H](c2ccc(-c3ccc(O)cc3)s2)N1c1ccccc1` [Example 51, (3R,4S)-3-[(3S)-3-(4-Fluorophenyl)-3-hydroxypropyl]-4-[5-(4-hydroxyphenyl)-2-thienyl]-1-phenylazetidin-2-one], with 39%. With `Cc1ccccc1-c1ccc([C@@H]2[C@@H](CC[C@H](O)c3ccc(F)cc3)C(=O)N2c2ccc(F)cc2)cc1` [Example 98, (3R,4S)-1-(4-fluorophenyl)-3-[(3S)-3-(4-fluorophenyl).3-hydroxypropyl]-4-(2'-methylbiphenyl-4-yl)azetidin-2-one], the inhibition at 1 mg/kg under setting [1] was 7%. As to `O=C1[C@H](CC[C@H](O)c2ccc(F)cc2)[C@@H](c2ccc(-c3cccc(O)c3)cc2O)N1c1ccccc1` [Example 42, (3R,4S)-4-(3,3'-Dihydroxybiphenyl-4-yl)-3-[(3S)-3-(4-fluorophenyl)-3-hydroxypropyl]-1-phenylazetidin-2-one], 1 mg/kg produced 87% inhibition under setting [2]. Compound `O=C1[C@H](CC[C@H](O)c2ccc(F)cc2)[C@@H](c2ccc(-c3cccc(CO)c3)cc2)N1c1ccc(F)cc1` [Example 16, (3R,4S)-1-(4-Fluorophenyl)-3-[(3S)-3-(4-fluorophenyl)-3-hydroxypropyl]-4-(3'-(hydroxymethyl)biphenyl-4-yl)azetidin-2-one] had an inhibition at 1 mg/kg under setting [1] of 72%.

Under setting [1], `COC(=O)c1ccc(-c2ccc([C@@H]3[C@@H](CC[C@H](O)c4ccc(F)cc4)C(=O)N3c3ccc(F)cc3)cc2)cc1` [Example 89, methyl 4'-{(2S,3R)-1-(4-fluorophenyl)-3-[(3S)-3-(4-fluorophenyl)-3-hydroxypropyl]-4-oxoazetidin-2-yl} biphenyl-4-carboxylate] gave an inhibition at 1 mg/kg of 45%. As to `O=C1[C@H](CC[C@H](O)c2ccc(F)cc2)[C@@H](c2ccc(-c3cccc([C@H](O)[C@@H](O)[C@@H](O)[C@H](O)[C@@H](O)CO)c3)cc2O)N1c1ccccc1` [Example 75, (6S)-6-C-(4'-{(2S,3R)-3-[(3S)-3-(4-Fluorophenyl)-3-hydroxypropyl]-4-oxo-1-phenylazetidin-2-yl}-3'-hydroxybiphenyl-3-yl)-D-glucitol], the inhibition at 1 mg/kg under setting [2] turned out to be 68%. On to `O=C1[C@H](CC[C@H](O)c2ccc(F)cc2)[C@@H](c2ccc(-c3cccc(P(=O)(O)O)c3)cc2)N1c1ccccc1` [Example 122, (4'-{(2S,3R)-3-[(3S)-3-(4-fIuorophenyI)-3-hydroxypropyl]-4-oxo-1-phenylazetidin-2-yl}biphenyl-3-yl)phosphonic acid], for which, under “Table 2, perorally, 1 mg/kg, versus vehicle only control”, the “% inhibition at 1 mg/kg” value is reported as 67%. The compound `CS(=O)(=O)c1cccc(-c2ccc([C@@H]3[C@@H](CC[C@H](O)c4ccc(F)cc4)C(=O)N3c3ccccc3)c(O)c2)c1` [Example 123, (3R,4S)-3-[(3S)-3-(4-fluorophenyl)-3-hydroxypropyl]-4-[3-hydroxy-3'-(methylsulfonyl)biphenyl-4-yl]-1-phenylazetidin-2-one] came in with an inhibition at 1 mg/kg under setting [2] of 72%. In turn, `O=C(O)c1ccc(-c2ccc([C@@H]3[C@@H](CC[C@H](O)c4ccc(F)cc4)C(=O)N3c3ccc(F)cc3)cc2)cc1O` [Example 110, 4'-{(2S,3R)-1-(4-fluorophenyl)-3-[(3S)-3-(4-fluorophenyl)-3-hydroxypropyl]-4-oxoazetidin-2-yl}-3-hydroxybiphenyl-4-carboxylic acid] came in with an inhibition at 1 mg/kg under setting [1] of 72%. With `O=C1[C@H](CC[C@H](O)c2ccc(F)cc2)[C@@H](c2ccc(-c3ccc(P(=O)(O)O)cc3)cc2O)N1c1ccccc1` [Example 127, (4'-{(2S,3R)-3-[(3S)-3-(4-Fluorophenyl)-3-hydroxypropyl]-4-oxo-1-phenylazetidin-2-yl}-3'-hydroxybiphenyl-4-yl)phosphonic acid], the inhibition at 1 mg/kg under setting [2] is 58%. Turning to `O=C1C(CCC(O)c2ccc(F)cc2)C(c2ccc(-c3ccc(CO)cc3)cc2)N1c1ccc(F)cc1` (centres unmarked) [Example 18], the inhibition at 1 mg/kg under setting [1] is 48%. Under setting [2], `O=C1C(CCC(O)c2ccc(F)cc2)C(c2cccc(-c3ccc(O)cc3)c2)N1c1ccc(F)cc1` (centres unmarked) [Example 46] gave an inhibition at 1 mg/kg of 30%. Compound `CN(C)S(=O)(=O)c1ccc(-c2ccc([C@@H]3[C@@H](CC[C@H](O)c4ccc(F)cc4)C(=O)N3c3ccc(F)cc3)cc2)cc1` [Example 15, 4'-{(2S,3R)-1-(4-fluorophenyl)-3-[(3S)-3-(4-fluorophenyl)-3-hydroxypropyl]-4-oxoazetidin-2-yl}-biphenyl-N,N-dimethylbiphenyl-4-sulfonamide] had an inhibition at 1 mg/kg under setting [1] of 8%. Compound `O=C1[C@H](CC[C@H](O)c2ccc(F)cc2)[C@@H](c2ccc(-c3cccc(S(=O)(=O)O)c3)cc2)N1c1ccc(F)cc1` [Example 118, 4'-{(2S,3R)-1-(4-fluorophenyl)-3-[(3S)-3-(4-fluorophenyl)-3-hydroxypropyl]-4-oxoazetidin-2-yl}biphenyl-3-sulfonic acid] returned an inhibition at 1 mg/kg under setting [1] of 61%. `O=C1[C@H](CC[C@H](O)c2ccc(F)cc2)[C@@H](c2ccc(-c3cccc(O)c3)cn2)N1c1ccccc1` [Example 49, (3R,4S)-3-[(3S)-3-(4-fluorophenyl)-3-hydroxypropyl]-4-[5-(3-hydroxyphenyl)pyridin-2-yl]-1-phenylazetidin-2-one] displayed an inhibition at 1 mg/kg under setting [2] of 30%.

For the origin of these results see patent EP1832576A1, “4-Biarylyl-1-phenolyzetidin-2-ones” (Microbia Inc., priority 2003, dated 2005).
